ChEMBL document CHEMBL1201862, “PubChem BioAssay data set” (2004)
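Method: 48-hour compound exposure of cells in 96-well plates, five concentrations, linear interpolation of endpoints. GI50: concentration for 50% inhibition of growth.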 Calls of active or inactive are those of the source. Cut-off read from the data, not from the text of the source: active = GI50 up to about 1.1 µM and inactive = higher.

Key:
Assay in all cases: NCI-60 cell line screen, 48 h
[1] = test system: SR
[2] = test system: SK-OV-3
[3] = test system: CCRF-CEM
[4] = test system: 786-0
[5] = test system: OVCAR-3
[6] = test system: HCT-116
[7] = test system: DU-145
[8] = test system: NCI-H23
[9] = test system: ACHN
[10] = test system: SK-MEL-5
[11] = test system: A549
[12] = test system: SNB-19
[13] = test system: COLO 205
[14] = test system: DMS-114
[15] = test system: U-251
[16] = test system: MOLT-4
[17] = test system: SNB-75
[18] = test system: HT-29
[19] = test system: T47D
[20] = test system: SF-539
[21] = test system: OVCAR-8
[22] = test system: RXF 393
[23] = test system: LXFL 529
[24] = test system: HOP-62
[25] = test system: SF-295
[26] = test system: UACC-62
[27] = test system: DLD-1
[28] = test system: EKVX
[29] = test system: SK-MEL-2
[30] = test system: RPMI-8226
[31] = test system: DMS-273
[32] = test system: MDA-N
[33] = test system: NCI/ADR-RES
[34] = test system: HCC 2998
[35] = test system: M19-MEL
[36] = test system: BT-549
[37] = test system: MDA-MB-435
[38] = test system: HOP-18
[39] = test system: MDA-MB-231
[40] = test system: A498
[41] = test system: SN12C
[42] = test system: Hs-578T
[43] = test system: OVCAR-5
[44] = test system: LOX IMVI
[45] = test system: TK-10
[46] = test system: KM12
[47] = test system: SF-268
[48] = test system: UO-31
[49] = test system: OVCAR-4
[50] = test system: HL-60
[51] = test system: Malme-3M
[52] = test system: MCF7
[53] = test system: CAKI-1
[54] = test system: SW-620
[55] = test system: K562
[56] = test system: IGROV-1
[57] = test system: PC-3
[58] = test system: NCI-H460
[59] = test system: M14
[60] = test system: HCT-15
[61] = test system: SK-MEL-28
[62] = test system: HOP-92
[63] = test system: NCI-H522
[64] = test system: KM-20L2
[65] = test system: UACC-257
[66] = test system: NCI-H226
[67] = test system: XF498
[68] = test system: SNB-78

Measured: GI50

C/C=C(/C)C(=O)O[C@H]1[C@H](O)CC(c2ccc3c(c2O)C(=O)C2=C(O)C4(OC)C(=O)C(C(N)=O)=C(O)[C@H](CC(=O)c5ccccc5O)C4CC2[C@@]3(C)OC)O[C@@H]1C (stereo not given in full)
0.00507 µM: [60]
inactive: [33] 8.43 µM
active: [1] 0.00426 µM | [2] 0.00446 µM | [3] 0.0281 µM | [4] 0.00479 µM | [5] 0.00454 µM | [6] 0.00121 µM | [7] 0.0265 µM | [8] 0.00711 µM | [9] 0.00418 µM | [10] 0.001 µM | [11] 0.00311 µM | [12] 0.00433 µM | [13] 0.0104 µM | [14] 0.01 µM | [15] 0.00256 µM | [16] 0.148 µM | [17] 0.0198 µM | [18] 0.00246 µM | [19] 0.0113 µM | [20] 0.00611 µM | [21] 0.00475 µM | [22] 0.0198 µM | [23] 0.01 µM | [24] 0.00331 µM | [25] 0.017 µM | [26] 0.01 µM | [27] 0.01 µM | [28] 0.0396 µM | [29] 0.00621 µM | [30] 0.00785 µM | [31] 0.01 µM | [32] 0.0272 µM | [34] 0.0326 µM | [35] 0.01 µM | [36] 0.0187 µM | [37] 0.0187 µM | [38] 0.01 µM | [39] 0.0078 µM | [40] 0.0422 µM | [41] 0.00297 µM | [42] 0.0041 µM | [43] 0.0546 µM | [44] 0.0035 µM | [45] 0.00817 µM | [46] 0.00647 µM | [47] 0.0057 µM | [48] 0.041 µM | [49] 0.0849 µM | [50] 0.0248 µM | [51] 0.0182 µM | [52] 0.00363 µM | [53] 0.0124 µM | [54] 0.00408 µM | [55] 0.01 µM | [56] 0.00577 µM | [57] 0.00637 µM | [58] 0.00178 µM | [59] 0.0213 µM | [61] 0.653 µM | [62] 0.0218 µM | [63] 0.00557 µM | [64] 0.01 µM | [65] 0.0165 µM | [66] 0.0202 µM

CN1CCN(c2nc(N)c(Br)c(Cl)n2)CC1
> 100 µM: [60]
inactive: [2] > 100 µM | [3] > 100 µM | [4] > 100 µM | [5] > 100 µM | [8] > 100 µM | [9] > 100 µM | [10] > 100 µM | [11] > 100 µM | [12] > 100 µM | [13] > 100 µM | [14] > 100 µM | [16] > 100 µM | [17] 58.3 µM | [21] > 100 µM | [22] > 100 µM | [23] > 100 µM | [24] > 100 µM | [25] > 100 µM | [26] > 100 µM | [27] > 100 µM | [28] > 100 µM | [29] > 100 µM | [30] > 100 µM | [31] > 100 µM | [34] > 100 µM | [35] > 100 µM | [41] > 100 µM | [43] > 100 µM | [44] > 100 µM | [45] > 100 µM | [46] > 100 µM | [47] > 100 µM | [48] > 100 µM | [49] > 100 µM | [50] > 100 µM | [51] > 100 µM | [53] > 100 µM | [54] > 100 µM | [67] > 100 µM | [55] > 100 µM | [56] > 100 µM | [58] > 100 µM | [59] > 100 µM | [68] > 100 µM | [61] > 100 µM | [62] 54.3 µM | [63] > 100 µM | [64] > 100 µM | [65] > 100 µM

O/N=C(\c1ccccc1)N1CCCCC1
active: [38] < 0.01 µM
inactive: [1] > 100 µM | [4] > 100 µM | [5] > 100 µM | [6] > 100 µM | [8] > 100 µM | [11] > 100 µM | [12] > 100 µM | [13] > 100 µM | [14] > 100 µM | [15] > 100 µM | [17] 82.8 µM | [18] > 100 µM | [20] > 100 µM | [21] > 100 µM | [23] > 100 µM | [24] 92.3 µM | [25] > 100 µM | [27] > 100 µM | [29] > 100 µM | [31] > 100 µM | [34] > 100 µM | [41] > 100 µM | [43] > 100 µM | [44] > 100 µM | [46] > 100 µM | [47] > 100 µM | [48] 66.5 µM | [49] > 100 µM | [50] > 100 µM | [51] 4.19 µM | [53] > 100 µM | [54] > 100 µM | [58] > 100 µM | [59] > 100 µM | [68] > 100 µM | [62] > 100 µM | [63] > 100 µM | [64] > 100 µM | [65] > 100 µM

N=C(N)Cn1cnc2ccccc21
> 100 µM: [60]
inactive: [2] > 100 µM | [3] > 100 µM | [4] > 100 µM | [5] > 100 µM | [8] > 100 µM | [9] > 100 µM | [10] > 100 µM | [11] > 100 µM | [12] > 100 µM | [13] > 100 µM | [14] > 100 µM | [15] > 100 µM | [16] > 100 µM | [17] > 100 µM | [20] > 100 µM | [21] > 100 µM | [22] > 100 µM | [23] > 100 µM | [24] > 100 µM | [25] > 100 µM | [26] > 100 µM | [28] > 100 µM | [29] > 100 µM | [30] > 100 µM | [34] > 100 µM | [35] > 100 µM | [38] > 100 µM | [40] > 100 µM | [41] > 100 µM | [43] > 100 µM | [44] > 100 µM | [45] > 100 µM | [46] > 100 µM | [47] > 100 µM | [48] > 100 µM | [50] > 100 µM | [51] > 100 µM | [54] > 100 µM | [55] > 100 µM | [56] > 100 µM | [58] > 100 µM | [59] > 100 µM | [68] > 100 µM | [61] > 100 µM | [63] > 100 µM | [64] > 100 µM | [65] > 100 µM | [66] > 100 µM

O=C1C[C@@H]2[C@@H](C=CC23CCCC3)N1O
inactive: [2] > 100 µM | [3] > 100 µM | [4] > 100 µM | [5] > 100 µM | [6] > 100 µM | [8] > 100 µM | [9] > 100 µM | [10] > 100 µM | [11] > 100 µM | [12] > 100 µM | [13] > 100 µM | [14] > 100 µM | [15] > 100 µM | [16] > 100 µM | [17] > 100 µM | [18] > 100 µM | [20] > 100 µM | [21] > 100 µM | [22] > 100 µM | [23] > 100 µM | [24] > 100 µM | [25] > 100 µM | [26] > 100 µM | [27] > 100 µM | [28] > 100 µM | [29] > 100 µM | [30] > 100 µM | [31] > 100 µM | [34] > 100 µM | [35] > 100 µM | [38] > 100 µM | [40] > 100 µM | [41] > 100 µM | [43] > 100 µM | [44] > 100 µM | [45] > 100 µM | [46] > 100 µM | [47] > 100 µM | [48] > 100 µM | [49] > 100 µM | [50] > 100 µM | [51] > 100 µM | [53] > 100 µM | [54] > 100 µM | [55] > 100 µM | [56] > 100 µM | [58] > 100 µM | [59] > 100 µM | [68] > 100 µM | [61] > 100 µM | [63] > 100 µM | [64] > 100 µM | [65] > 100 µM | [66] > 100 µM
> 100 µM: [60]
